From patent publication US11541060B2, “Pharmaceutical compositions for treating pain” (FOREVER CHEER INTERNATIONAL LIMITED, priority 2017, dated 2023)
Entries after “also recorded” stand apart in the source; their conditions may differ.

Columns and labels:
pre-LTP in ACC = pre-LTP in ACC cortical slices; format: cell-based, adult mice; settings: 25 μM (SQ22356 'same dose'; NB011 concentration not given), FIG. 1B/FIG. 2
post-LTP in ACC [1] = settings: recent report (Chen et al., 2014); cited from earlier work
[2] = tested on: anxiety caused by nerve injury in mice; test: Anxiety behavior test (EPM) after nerve injury; format: in vivo; settings: FIG. 6
[3] = tested on: behavioral itching (scratching) response in mice; test: Itching response to intradermal compound 48/80; format: in vivo; settings: compound 48/80 100 μg/50 μl intradermal, FIG. 7
[4] = tested on: morphine-induced place preference in mice; test: Conditioned place preference (CPP) to morphine; format: in vivo
[5] = tested on: morphine tolerance in mice; test: Morphine tolerance after repeated morphine injections (hotplate, tail-flick); settings: mouse, in vivo
[6] = molecular target: adenylyl cyclase subtype 8 (AC8) (Homo sapiens, UniProt P40145); test: cAMP assay in AC8 expressing cell line (biochemical screening for AC1 & 8 inhibitors); format: cell-based; settings: for inhibition of AC8 activity (in words): 100 μM; for inhibition at 100 µM: read-out: Percent Inhibition AC8
adenylyl cyclase subtype 8 (AC8), sequence (P40145 whole entry, species assumed): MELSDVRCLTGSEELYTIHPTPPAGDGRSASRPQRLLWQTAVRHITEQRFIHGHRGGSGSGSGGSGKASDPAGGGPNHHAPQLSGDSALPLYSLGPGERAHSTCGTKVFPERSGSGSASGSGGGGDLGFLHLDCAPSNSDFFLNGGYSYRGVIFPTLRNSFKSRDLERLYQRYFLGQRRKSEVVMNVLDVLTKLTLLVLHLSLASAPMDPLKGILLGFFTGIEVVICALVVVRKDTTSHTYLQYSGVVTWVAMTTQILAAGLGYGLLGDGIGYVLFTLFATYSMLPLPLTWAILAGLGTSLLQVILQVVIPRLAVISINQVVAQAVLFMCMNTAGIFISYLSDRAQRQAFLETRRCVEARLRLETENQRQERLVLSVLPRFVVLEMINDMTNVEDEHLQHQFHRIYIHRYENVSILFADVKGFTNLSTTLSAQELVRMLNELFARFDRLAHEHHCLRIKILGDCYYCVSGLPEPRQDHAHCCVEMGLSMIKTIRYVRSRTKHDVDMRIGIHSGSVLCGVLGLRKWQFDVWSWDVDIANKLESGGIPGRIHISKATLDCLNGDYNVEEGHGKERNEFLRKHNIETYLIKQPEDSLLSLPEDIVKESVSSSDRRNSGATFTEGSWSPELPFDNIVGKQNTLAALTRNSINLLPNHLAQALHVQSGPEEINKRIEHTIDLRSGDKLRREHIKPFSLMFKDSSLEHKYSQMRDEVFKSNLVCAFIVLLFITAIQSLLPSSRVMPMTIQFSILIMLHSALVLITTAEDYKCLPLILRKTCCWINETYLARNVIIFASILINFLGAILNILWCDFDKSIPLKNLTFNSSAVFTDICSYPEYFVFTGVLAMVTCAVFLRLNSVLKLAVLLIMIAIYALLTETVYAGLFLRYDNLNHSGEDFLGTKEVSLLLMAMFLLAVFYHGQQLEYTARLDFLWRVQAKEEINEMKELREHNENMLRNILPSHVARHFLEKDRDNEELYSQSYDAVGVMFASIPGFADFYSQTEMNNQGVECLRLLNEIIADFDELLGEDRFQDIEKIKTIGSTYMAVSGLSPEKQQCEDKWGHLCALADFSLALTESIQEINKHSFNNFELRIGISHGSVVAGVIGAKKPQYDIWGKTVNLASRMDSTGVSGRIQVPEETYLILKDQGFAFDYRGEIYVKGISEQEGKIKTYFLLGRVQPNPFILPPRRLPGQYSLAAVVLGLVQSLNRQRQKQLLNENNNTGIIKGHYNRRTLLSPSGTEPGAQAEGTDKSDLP

[7] = molecular target: adenylyl cyclase subtype 1 (AC1) (Homo sapiens, UniProt Q08828); test: cAMP assay in AC1 expressing cell line (biochemical screening for AC1 & 8 inhibitors); format: cell-based; settings: for inhibition of AC1 activity (in words): 100 μM; for inhibition at 100 µM: read-out: Percent Inhibition AC1
adenylyl cyclase subtype 1 (AC1), sequence (Q08828 whole entry): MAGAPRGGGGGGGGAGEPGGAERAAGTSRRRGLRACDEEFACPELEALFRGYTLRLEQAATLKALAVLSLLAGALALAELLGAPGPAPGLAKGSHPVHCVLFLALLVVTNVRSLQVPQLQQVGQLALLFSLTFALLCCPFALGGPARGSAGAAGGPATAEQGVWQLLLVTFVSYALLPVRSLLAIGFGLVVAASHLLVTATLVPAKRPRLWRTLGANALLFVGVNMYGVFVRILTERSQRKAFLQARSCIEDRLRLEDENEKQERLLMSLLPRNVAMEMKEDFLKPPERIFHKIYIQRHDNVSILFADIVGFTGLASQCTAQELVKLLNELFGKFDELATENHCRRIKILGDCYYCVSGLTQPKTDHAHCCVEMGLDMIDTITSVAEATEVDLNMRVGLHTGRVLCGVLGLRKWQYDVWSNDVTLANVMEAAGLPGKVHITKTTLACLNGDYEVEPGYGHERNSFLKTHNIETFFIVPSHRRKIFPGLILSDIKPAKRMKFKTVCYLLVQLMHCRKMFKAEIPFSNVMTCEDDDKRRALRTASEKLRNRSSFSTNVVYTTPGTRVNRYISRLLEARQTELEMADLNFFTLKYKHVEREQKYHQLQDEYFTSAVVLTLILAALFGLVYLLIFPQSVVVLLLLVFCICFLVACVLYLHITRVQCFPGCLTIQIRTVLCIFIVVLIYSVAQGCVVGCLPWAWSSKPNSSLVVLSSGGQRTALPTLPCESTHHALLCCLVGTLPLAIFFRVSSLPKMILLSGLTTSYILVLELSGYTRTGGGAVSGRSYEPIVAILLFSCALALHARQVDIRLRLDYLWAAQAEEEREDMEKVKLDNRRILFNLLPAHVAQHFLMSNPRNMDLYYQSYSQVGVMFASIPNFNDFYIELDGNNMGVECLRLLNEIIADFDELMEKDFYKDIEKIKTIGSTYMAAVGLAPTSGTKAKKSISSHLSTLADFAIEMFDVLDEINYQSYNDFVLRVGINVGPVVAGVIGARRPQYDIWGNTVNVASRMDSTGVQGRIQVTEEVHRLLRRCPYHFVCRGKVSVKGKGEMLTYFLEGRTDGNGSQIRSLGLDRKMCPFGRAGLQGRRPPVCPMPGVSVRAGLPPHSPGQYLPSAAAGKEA

post-LTP in ACC [8] = test: post-LTP (ACC LTP) in ACC cortical slices; format: cell-based; settings: 25 μM, ACC slices of adult mice, FIG. 1A

| Structure (SMILES) | induction of pre-LTP (pre-LTP in ACC) | effect on ACC LTP (post-LTP in ACC [1]) | anxiety caused by nerve injury (EPM test) ([2]; 100 mg/kg i.p.) | total scratching (itching) responses ([3]; 100 mg/kg) | total scratching (itching) responses ([3]; 100 mg/kg, listed as GABApention) | morphine-induced place preference ([4]; 100 mg/kg, morphine 10 mg/kg, after 9 days, FIG. 5) | morphine tolerance / morphine analgesic effect [5] | anxiety caused by nerve injury (EPM test) ([2]; 5 mg/kg, 7 days after injury) | total scratching (itching) responses ([3]; 5 mg/kg) | morphine-induced place preference ([4]; 5 mg/kg, morphine 10 mg/kg, after 9 days, FIG. 5) | inhibition of AC8 activity (in words) [6] | inhibition at 100 µM [6] | inhibition of AC1 activity (in words) [7] | inhibition at 100 µM [7] | anxiety caused by nerve injury (EPM test) ([2]; low dose 1 mg/kg, 1 mg/kg) | induction of post-LTP (ACC LTP) (post-LTP in ACC [8]) | total scratching (itching) responses ([3]; pretreatment (dose not given)) | morphine tolerance / morphine analgesic effect ([5]; 1 mg/kg) | morphine-induced place preference ([4]; dose reduced to 1 mg/kg (not shown in figure)) | morphine-induced place preference ([4]; mouse, in vivo) |
| --- | --- | --- | --- | --- | --- | --- | --- | --- | --- | --- | --- | --- | --- | --- | --- | --- | --- | --- | --- | --- |
| NCC1(CC(=O)O)CCCCC1 [GABApentin, reference compound] | not blocked | does not affect | Neither GABApentin (100 mg/kg, i.p.) nor SQ22356 (5 mg/kg) significantly reduced; also recorded: no significant effect | neither GABApentin nor SQ22356 produce any significant effect | did not cause a significant reduction | did not produce any significant effect | did not produce a significant effect; also recorded: did not produce any significant effect |  |  |  |  |  |  |  |  |  |  |  |  |  |
| Nc1ncnc2c1ncn2C1CCCO1 (centres unmarked) [SQ22356, reference compound] | did not cause a significant decrease |  |  |  |  |  | no significant effect; also recorded: did not produce any significant effect | Neither GABApentin (100 mg/kg, i.p.) nor SQ22356 (5 mg/kg) significantly reduced; also recorded: no significant effect | did not show significantly reduction | did not produce any inhibition |  |  |  |  |  |  |  |  |  |  |
| Cc1ccc(OCCn2c(S)nc3c(N)ncnc32)cc1 [NB010] | inhibit; also recorded: blocked |  |  |  |  |  | significant greater analgesic effects; also recorded: reduced | significant reduction; also recorded: reduced anxiety |  |  | significant inhibition | 88 ± 2% | significant inhibition | 96 ± 4% | did not significantly decrease; also recorded: neither NB010 nor NB011 affected anxiety | blocked | significantly reduced | no significant effect |  |  |
| c1nc(N2CCOCC2)c2nc[nH]c2n1 [NB011, 4-(9H-purin-6-yl)morpholine] | inhibit; also recorded: decrease |  |  |  |  |  | significant greater analgesic effects; also recorded: reduced | significant reduction; also recorded: reduced anxiety |  |  | significant inhibition | 86 ± 2% | significant inhibition | 91 ± 3% | neither NB010 nor NB011 affected anxiety |  | significantly reduced | no significant effect | expected effect was not produced |  |
| Nc1ncnc2c1ncn2CCNCCCCCO [NB001, 5-((2-(6-amino-9H-purin-9-yl)ethyl)amino)pentane-1-ol] |  |  |  |  |  |  |  |  |  |  |  |  |  |  |  |  |  |  |  | significantly less time; also recorded: significant reduce; also recorded: expected effect was not produced |
